Results as given in patent US4663453A, “Benzo[b]pyrrolo[3,2,1-jk][1,4]benzodiazepines having dopamine receptor activity” (Hoechst-Roussel Pharmaceuticals Inc., priority 1985, dated 1987).
Counter-ions that a name gives are not always drawn.

Assays:
[1] = system: apomorphine climbing; assay: climbing mice assay (antipsychotic activity, apomorphine-induced climbing); type: in vivo, mice (CK-1 male); details: Mus musculus, po, apomorphine 1.5 mg/kg sc challenge
Procedure: Antipsychotic activity is determined in the climbing mice assay by a method similar to those described by P. Protais, et al., Psychopharmacol., 50, 1 (1976) and B. Costall, Eur. J. Pharmacol., 50, 39 (1978).
The subject CK-1 male mice (23-27 grams) are group-housed under standard laboratory conditions. The mice are individually placed in wire mesh stick cages (4"×4"×10") and are allowed one hour for adaptation and exploration of the new environment. Then apomorphine is injected subcutaneously at 1.5 mg/kg, a dose causing climbing in all subjects for 30 minutes. Compounds to be tested for antipsychotic activity are injected intraperitoneally or given oral doses at various time intervals, e.g. 30 minutes, 60 minutes, etc. prior to the apomorphine challenge at a screening dose of 10-60 mg/kg.
For evaluation of climbing, 3 readings are taken at 10, 20 and 30 minutes after apomorphine administration according to the following scale:
4 paws on bottom (no climbing)
2 paws on the wall (rearing)
4 paws on the wall (full climb)
Mice consistently climbing before the injection of apomorphine will be discarded.
With full-developed apomorphine climbing, the animals are hanging on to the cage walls, rather motionless, over longer periods of time. By contrast, climbs due to mere motor stimulation usually only last a few seconds.
The climbing scores are individually totaled (maximal score: 6 per mouse over 3 readings) and the total score of the control group (vehicle intraperitoneally--apomorphine subcutaneously) is set to 100%. ED50 values with 95% confidence limits, calculated by a Linear Regression Analysis, of some of the instant benzopyrrolobenzodiazepines as well as a standard antipsychotic agent are presented in Table 1.

[2] = system: phenylquinone induced writhing; assay: phenyl-p-quinone writhing assay in mice (analgesia); type: in vivo; details: Mus musculus, sc, dose for approximately 50% inhibition of writhing
Description: Some of the benzopyrrolobenzodiazepines and quinobenzodiazepines of the present invention are also useful as analgetics due to their ability to alleviate pain in mammals. […] Exptl. Biol Med., 95 729 (1957)]. Thus, for instance, the subcutaneous dose effecting an approximately 50% inhibition of writhing (ED50) in mice produced in this assay is as shown in Table 2.

Row | SMILES | ED50 [1] [mg/kg] | ED50 [2] [mg/kg]
1 | CN1CCN(C2=Nc3ccccc3-n3ccc4cc(Cl)cc2c43)CC1 [4-Chloro-6-(4-methyl-1-piperazinyl)benzo[b]pyrrolo[3,2,1-jk][1,4]benzodiazepine] | 13.4 | –
2 | CN1CCN(C2=Nc3cc(Br)ccc3N3CCc4cccc2c43)CC1 [9-Bromo-6-(4-methyl-1-piperazinyl)-1,2-dihydrobenzo[b]pyrrolo[3,2,1-jk][1,4]benzodiazepine] | 30.8 | –
3 | CN1CCN(C2=Nc3cc(Br)ccc3-n3ccc4cccc2c43)CC1 [9-Bromo-6-(4-methyl-1-piperazinyl)benzo[b]pyrrolo[3,2,1-jk][1,4]benzodiazepine] | 13.5 | 0.72
4 | CN(C)CCN(C)C1=Nc2cc(Br)ccc2N2CCc3cccc1c32 [9-Bromo-6-[(2-dimethylamino)-N-methylethylamino]-1,2-dihydrobenzo[b]pyrrolo[3,2,1-jk][1,4]benzodiazepine Dimaleate salt] | – | 8.1
5 | Cc1ccc2c(c1)N=C(N1CCN(C)CC1)c1cccc3c1N2CC3 [9-Methyl-6-(4-methyl-1-piperazinyl)-1,2-dihydrobenzo[b]pyrrolo[3,2,1-jk][1,4]benzodiazepine] | 25.5 | 0.34
6 | CN1CCN(C2=Nc3cc(Cl)ccc3N3CCc4cccc2c43)CC1 [9-chloro-6-(4-methyl-1-piperazinyl)-1,2-dihydrobenzo[b]pyrrolo[3,2,1-jk][1,4]benzodiazepine] | – | 4.1
7 | CN1CCN(C2=Nc3cc(Cl)ccc3Nc3ccccc32)CC1 [clozapine, reference compound] | 23.2 | –
8 | CCC(=O)O[C@](Cc1ccccc1)(c1ccccc1)[C@H](C)CN(C)C [propoxyphene, reference compound] | – | 3.9
